Experimental findings from publication PMC9000318, “Identification and Validation of a New Peptide Targeting Pancreatic Beta Cells” (Molecules, 2022) are described below.

Ends that are not written are not given here. * marks the point of attachment. FITC = O=C1OC2(c3ccc(O)cc3Oc3cc(O)ccc32)c2ccc(NC(=S)*)cc21

The test system of data set [1] is islets in pancreas cryosections. Nature of the data set: Binding to in situ islets, mouse pancreas cryosections. On the set-up: species or system ICR mice. The conditions noted are these: 2 h incubation, anti-insulin counterstain, fluorescence microscope. On the procedure: (§1) In order to evaluate whether the LNTPLKS-FITC peptide could directly bind islets within the pancreas, the pancreas of ICR mice was collected and frozen sections were prepared. The cryosections were incubated with anti-insulin solution and LNTPLKS-FITC 2 h after treatment with BSA, followed by observation under fluorescence microscope. To determine whether LNTPLKS could bind to human islet, staining of paraffin-embedded human tissue sections were performed. Briefly, slices were deparaffinized and subsequently permeabilized by heating in antigen-unmasking solutions. After blocking with 2% BSA, slices were incubated with anti-insulin antibody at 4 °C overnight. Cy3-conjugated goat anti-mouse IgG (1:300 dilutions) antibody was incubated for 50 min at 24 °C. Then, the slices were incubated with DAPI and LNTPLKS-FITC or control peptide for 1 h at room temperature. Tissue slides were analyzed using a fluorescence microscope. To further confirm the specificity of peptide to islet, we transplanted islets under renal capsule of the ICR mice. Kidney slices containing islets grafts were prepared and incubated with LNTPLKS-FITC peptide. After 2 h of incubation, the slices were observed under fluorescence microscope.

The next data set has as its system islets grafts. As to the kind of experiment: Binding to islet grafts under the renal capsule, kidney slices. The conditions noted are these: islets transplanted under renal capsule of ICR mice, slices incubated 2 h. On the procedure:
as §1

The next data set deals with primary islet cells. An excerpt: Mice insulinoma cell line MIN6 were obtained from the Academy of Sciences Cell Bank of Shanghai and routinely cultured in RPMI-1640 medium (Gibco, Shanghai, China), supplemented with 10% (v/v) fetal bovine serum (FBS) and 1% (v/v) penicillin-streptomycin. The murine pancreatic cancer cell line KPC and the hepatocellular carcinoma cell line (HCC-LM3) were kindly provided by Tingbo Liang’s Research Group (Zhejiang University, Hangzhou, China). KPC cells were maintained in RPMI-1640 medium (Gibco, Shanghai, China), supplemented with 20% FBS, 1% sodium pyruvate (100×), and 1% MEM Non-Essential Amino Acids (NEAA 100×). HCC-LM3 cells were maintained in Dulbecco’s modified Eagle’s medium (DMEM; Gibco, Shanghai, China) with 10% FBS and 1% (v/v) penicillin-streptomycin. The primary islets were isolated by collagenase digestion from ICR (Institute of Cancer Research) mice and separated by density gradient centrifugation as previously described. The islets were incubated at 37 °C in 2 mL RPMI-1640 medium at a density of 100–150 islets per well in 6-well plates and maintained at 37 °C with 5% CO2.
To investigate the effect of LNTPLKS on the viability of the islet cells, different concentrations of LNTPLKS (0, 0.5, 1, 10 μM) were separately co-incubated with islet cells in 96-well plates (triplicate wells for each concentration of peptide). Twenty-four hours later, MTT was added and incubated for 4 h. DMSO was added after centrifugation and the color development was read at an OD of 570 nm. Islet cells were incubated with different concentrations of peptides for 24 h at 37 °C. The supernatant was discarded, cells were rinsed twice with PBS, KRB buffer containing 3.3 mM glucose was added, and the cells were incubated for 30 min at 37 °C. The supernatant was discarded and cells were incubated with KRB buffer containing low glucose (3.3 mM) or high glucose (16.7 mM) for 1 h.

Data set [2] relates to islet cells. Nature of the data set: FACS binding to islet cells. Format: cell-based, ICR mouse. Particulars: flow cytometry, FITC-labeled peptide, 2 h incubation, islets digested to single cells. On the procedure:
(§2) Purified FITC-labeled candidate peptides were used for the peptide-based immunofluorescence assay to confirm the selective binding of the selected peptides to the used cells. FITC-labeled peptide-based immunofluorescence assay was performed, and FITC-labeled peptide (1 μM) was added to each well and then incubated for 2 h at room temperature. The wells were washed with PBS three times and directly mounted with vectashield mounting medium after DAPI staining. The cells were visualized under fluorescence microscope. In addition, to determine the binding location of the peptide, MIN6 cells were labeled with LNTPLKS-FITC and further observed under confocal microscope. For fluorescence activated cell sorting, purified islets and KPC cells were incubated in 6 well plates; 24 h later, FITC-labeled peptide was added with a final concentration of 1 μM. After 2 h of incubation, cells were washed with PBS three times and harvested for FACS to quantitatively analyze the binding affinity of the peptide to the different cell types (islets was digested to single cells before FACS analyzing).
On the technique in general: Flow cytometry measures light scatter and fluorescence of single cells or particles in a stream.

Another data set deals with KPC cells. As to the kind of experiment: FACS binding to KPC cells. Type of data set: cell-based, murine. Particulars: flow cytometry, FITC-labeled peptide, 2 h incubation. On the procedure:
as §2

The subject of data set [3] is MIN6 cells. As to the kind of experiment: FITC-labeled peptide-based immunofluorescence assay (ICC) on MIN6 cells. The conditions noted are these: FITC-labeled peptide 1 μM, 2 h, room temperature; fluorescence microscope; KPC cells as cell control. Set-up: species or system mice. On the procedure: as §2
For data set [4], the system named is MIN6 cells. Nature of the data set: Confocal microscopy, localization of the peptide in MIN6 cells. Type of data set: cell-based, mice. The conditions noted are these: DAPI counterstain. On the procedure:
as §2

Data set [5] relates to islet cells. As to the kind of experiment: FITC-labeled peptide-based immunofluorescence assay on purified islets. Type of data set: cell-based, ICR mouse. Particulars: fluorescence microscope. On the procedure:
as §2

A further data set has as its system human islets. As to the kind of experiment: Binding to human islets, paraffin-embedded pancreatic tissue sections. Particulars: paraffin sections from a donor, co-stained with anti-insulin antibody, 1 h room temperature. On the procedure:
as §1

For a further data set, the system named is pancreatic islet. As to the kind of experiment: In vivo targeting of pancreatic islets after tail vein injection. On the set-up: species or system mice. The conditions noted are these: pancreas sliced, data not shown. From the text: The final goal of developing a beta cell-specific molecular probe is to provide a non-invasive, in vivo imaging method for measuring BCM during diabetes progression and tracking islet grafts after islet transplantation, so that necessary and timely intervention can be performed. Therefore, all presumed beta cell-specific probes screened in vitro have to be validated by in vivo studies. As the first step, we tested islet specificity using pancreatic slices and islet graft-containing slices. […] However, when it comes to in vivo studies, the results were obscure. We injected FITC-conjugated LNTPLKS peptide into the mice via tail vein and the pancreas was then sliced to detect the targeting of the peptide in the pancreatic islet. The fluorescence within pancreas was rather weak (data not shown). The unsatisfied result might be attributed to the degradation of the peptide in the body. Increasing peptide stability and its circulation time will facilitate cellular uptake. In the following study, the peptide LNTPLKS will be further processed by chemical modification (such as PEGylation) to protect the peptide from degradation in vivo without changing the targeting ability of the peptide, or by conjugating it with other imaging materials (iron oxide nanoparticle, radionuclide, etc.) to be monitored by MR, SPECT, or other imaging modalities with high sensitivity.

In a further data set the test system is MIN6 tumor. Particulars: mouse, in vivo, 5 mg/kg.
A further data set has as its system LM3 tumor. Particulars: mouse, in vivo, 5 mg/kg.

From the text for LM3 tumor: (§3) In total, 2 × 10^6 MIN6 cells and HCC-LM3 cells were subcutaneously inoculated in male nude mice for 4 weeks separately. After 16 days, the tumor grew to approximately 1.0 cm^3. […] The tumor, spleen, kidney and liver were harvested and their fluorescence intensity was quantified by in vivo imaging system (IVIS).
From the text for MIN6 tumor: as §3

As to “SPPTGIN-FITC [random peptide SPPTGIN conjugated with FITC at the N-terminus, negative control, reference compound]”, in [1], the “fluorescence of islets in mouse pancreas cryosections” value was “no fluorescent signal was merged with the anti-insulin signal”. Moreover, the “fluorescence of islets grafts in kidney slices” value in the data set with islets grafts is on record as “no fluorescence was observed”.
For “LNTPLKS [seven-amino acid peptide targeting beta cell line MIN6, screened by phage display]”, the “viability of the islet cells” value in the data set with primary islet cells (MTT, 24 h co-incubation, peptide concentration between 500 and 1 μM, triplicate wells) is “only slightly affected”. The “glucose-stimulated insulin secretion (GSIS)” value in the data set on primary islet cells (peptide 24 h at 37 °C, between 500 and 1 μM, KRB buffer high glucose 16.7 mM, 1 h, insulin ELISA, three tests) is “only slightly affected”. The “basical insulin secretion (BIS)” value in the data set with primary islet cells (peptide 24 h at 37 °C, between 500 and 1 μM, KRB buffer low glucose 3.3 mM, 1 h, insulin ELISA, three tests) was “only slightly affected”. In addition, the “mean fluorescence peak point, islet group” value with islet cells [2] was “shifted to the right side”. The “mean fluorescence peak point, KPC cell group” value in the data set on KPC cells was “no such shift”.
In the case of “{FITC}-LNTPLKS [LNTPLKS-FITC, LNTPLKS conjugated with fluorescein isothiocyanate (FITC) at the N-terminus]”, in the data set with MIN6 cells [3], the “FITC signal in MIN6 cells” value was “significantly higher FITC signal”. In the data set with MIN6 cells [4], the “localization of the peptide on MIN6 cells” value is recorded as “internalized to the cytoplasm”. Further, the “affinity for the islet cells (fluorescent images)” value in the data set on islet cells [5] is “high affinity”. In addition, the “fluorescence of islets in mouse pancreas cryosections” value in data set [1] was “fluorescent, whereas the surrounding exocrine tissues were not”. In the data set on human islets, the “binding to human islets in pancreatic tissue sections” value was “identifiable within the islets and co-localized with insulin-producing cells”. Moreover, in the data set on islets grafts, the “fluorescence of islets grafts in kidney slices” value is recorded as “fluorescent”. Besides, the “fluorescence within pancreas after injection” value in the data set with pancreatic islet was “rather weak”. Besides, in the data set with MIN6 tumor, the “fluorescence average counts, kidney” value is 1.14 × 10^3 counts; the “fluorescence average counts, liver” value was 1.81 × 10^3 counts; the “fluorescence average counts, spleen” value is on record as 4.84 × 10^2 counts; the “fluorescence average counts, tumor” value is 1.80 × 10^3 counts. Moreover, in the data set with LM3 tumor, the “fluorescence average counts, kidney” value is listed as 1.20 × 10^3 counts; the “fluorescence average counts, liver” value is given as 2.15 × 10^3 counts; the “fluorescence average counts, spleen” value is listed as 5.24 × 10^2 counts; the “fluorescence average counts, tumor” value is 9.47 × 10^2 counts.
